Experimental data taken from PMC8536644, “Enigmatic mechanism of the N-vinylpyrrolidone hepatocarcinogenicity in the rat” (Archives of Toxicology, 2021).
Several values for one entry are separate records, joined by “and”; a condition that tells them apart may be missing. Identical values can stand only once.

What was measured:
[1] = test system: rat lung cells; experiment: Comet assay in presence of FPG, lung; conditions: with FPG, 5 days; for TI (%), mean of medians from 2 slides: individual animals
Procedure: Animals were anesthetized by 3.5% isoflurane (approximately 3 min, evaporator Dräger Vapor 19.3) and then killed by cervical dislocation. The liver was removed and its left lateral lobe used for the Comet assay. The remainder of the liver was washed in saline and then in two aliquots shock frozen in liquid nitrogen and stored at − 80 °C for later examinations. Subsequently the lung was removed from the dead animal. Its left lobe was used for the Comet assay and the remainder treated as described above for the liver. Thereafter the femora were removed for the preparation of the bone marrow.
The Comet assay was performed under alkaline conditions according to the principles described by Singh et al. ([1988]) and Tice et al. ([2000]).
Liver and lung cells were obtained essentially as described by Hartmann et al. ([2004]) and by the Japanese Center for the Validation of Alternative Methods (JaCVAM [2009]). Single cells were obtained within 1 h after killing of the animals in order to minimize DNA damage during the preparation.
The organ parts (see above) were washed in mincing buffer (50 mM EDTA in HBSS [without Ca^2+ and Mg^2+] pH 7.5: DMSO 9:1 (v/v), the latter added shortly before use, stored at 4 °C), cut into 1 to 2-mm pieces in ice-cold mincing buffer and transferred to a cell sieve with 70-µm pores. The viability of the cell suspension was evaluated by the Trypan Blue Assay (Strober [2001]).
100 µL of the obtained cell suspension was mixed at 37 °C with 900 µL Low Melting Agarose (LMA) (0.7% agarose in phosphate-buffered saline [PBS] [Biochrom, Berlin, Germany] without Ca^2+ and Mg^2+). 100 µL of this mixture was transferred to a slide, which had been coated with Normal Melting Agarose (NMA) (0.6% agarose in PBS without Ca^2+ and Mg^2+). The slides were protected with a cover slip and the agarose was hardened at approximately 4 °C. The cover slips were then removed and the slides put over night at 4 °C into lysis buffer (2.5 M NaCl, 125 mM NaOH, 127 mM EDTA, 10 mM Tris/NaOH, pH 10; 1% Triton X-100 and 10% DMSO (v/v), the latter two added before use) in order to lyse the cell membrane, nuclear membrane and remove the histone.
The then following procedures were performed in a shaded room to minimize UV-mediated DNA damage during the procedures.
Those slides which were destined to be treated with the DNA base excision repair enzyme FPG (Sigma Aldrich, Steinheim, Germany) were washed (3 times for 5 min) with FPG buffer (0.04 M HEPES, 0.5 mM EDTA, 0.1 M KCl, pH 8; add shortly before use bovine serum albumin [BSA] to a final concentration of 0.02%). Subsequently 50 µL FPG-enzyme-buffer (prepared shortly prior to use by 30-fold dilution of the following suspension in FPG buffer: 7 µL FPG-enzyme (14 U) and 70 µL glycerol in 623 µL FPG-Puffer, stored at − 80 °C) was pipetted on the slide which was covered with a cover slide and incubated for 30 min at 37 °C while being placed on a humid filter paper. After hardening of the agarose cover slips were removed.
Remaining lysis buffer or FPG buffer was removed by immersing/washing the slides in PBS (without Ca^2+ and Mg^2+).

[2] = test system: BALB/3T3 cells; parameters: method as in MAK [1994]; conditions: ref MAK [1994]; cited from earlier work
[3] = test system: (liver) DNA; parameters: method as in Inveresk Research International (IRI) [1986]; conditions: male CD rats, i.p. 14C-NVP 150 and 300 mg/kg; ref Inveresk Research International (IRI) [1986]; cited from earlier work
[4] = test system: mice; parameters: method as in BASF [1993]; conditions: oral application, ref BASF [1993]; cited from earlier work
[5] = test system: rat liver cells; conditions: rats, ref BASF [2011], cited from earlier work
[6] = test system: CYP 2B/3A; experiment: BROD assay, liver microsomes (PXR marker); type: in vivo, rat; conditions: male rats
Procedure: The alkoxyresorufin dealkylase (AROD) assays were based on the method by Burke et al. ([1994]).
The frozen livers and lungs of the NVP-treated male Wistar rats were thawed and washed with isotonic (0.9%) NaCl solution. The tissues were ice-cooled homogenized (1 g tissue: 3 mL 0.25 M saccharose in 1 mM disodium EDTA, pH 7.4) and centrifuged (9000 g, 15 min, 4 °C). The supernatant fraction was centrifuged (100 000 g, 60 min, 4 °C). The resulting supernatant fraction was used for the palmitoyl-CoA-oxidase assay described further down. The pellet was taken up in 150 mM aqueous KCl solution, recentrifuged (100 000 g, 60 min, 4 °C) and the pellet taken up in 1 mL/g liver or 0.5 mL/g lung resuspension buffer (1 mM GSH, 1 mM disodium EDTA, 4 mM MgCl2, 0.1 M KH2PO4, pH 7.5 and 4% glycerol). Aliquots were stored at − 80 °C.
For determination of the enzyme activities in triplicates, 85 µL master mix (100 mM TrisHCl pH 7.5, 2 mM 5’AMP, 5 mM G-6-P, 10 U G-6-P-DH, 10 mM Dicumarol, 10 mM MgCl2, either 2 µM EROD or 10 µM PROD or 5 µM BROD) was added to 10 µL microsomal fraction (1 mg protein/mL). The reaction was started by the addition of 5 µL 2 mM NADPH (dissolved in 100 mM TrisHCl pH 7.5) followed by incubation at 37 °C for 16 min. The activity was determined by measuring the increase of the fluorescence (excitation at 550 nm, emission at 585 nm) due to resorufin formation compared with resorufin standards, which had been prepared by dissolving tenfold concentrated solutions in DMSO, which were then diluted tenfold in 100 mM TrisHCl pH 7.5.

[7] = test system: rats; parameters: method as in Klimisch et al. [1997b]; conditions: ref Klimisch et al. [1997b], cited from earlier work

C=CN1CCCC1=O [NVP, N-vinylpyrrolidone]
Hedgehogs/100 cells (mean ± SD) ([1]; female, 5 ppm inhalation): 3 ± 2 /100 cells
TI (%) (mean ± SD) ([1]; female, 5 ppm inhalation): 7.8 ± 1.30%
TI (%), mean of medians from 2 slides ([1]; female, 5 ppm inhalation): 8.6% and 7.0% and 6.8% and 10.1% and 7.1% and 7.3%
Hedgehogs/100 cells (mean ± SD) ([1]; female, 10 ppm inhalation): 1 ± 1 /100 cells
TI (%) (mean ± SD) ([1]; female, 10 ppm inhalation): 7.2 ± 1.81%
TI (%), mean of medians from 2 slides ([1]; female, 10 ppm inhalation): 8.7% and 8.1% and 7.9% and 8.4% and 6.0% and 4.0%
Hedgehogs/100 cells (mean ± SD) ([1]; female, 20 ppm inhalation): 3 ± 1 /100 cells
TI (%) (mean ± SD) ([1]; female, 20 ppm inhalation): 7.4 ± 2.90%
TI (%), mean of medians from 2 slides ([1]; female, 20 ppm inhalation): 6.2% and 8.6% and 10.2% and 2.3% and 7.7% and 9.7%
Hedgehogs/100 cells (mean ± SD) ([1]; male, 5 ppm inhalation): 2 ± 2 /100 cells
TI (%) (mean ± SD) ([1]; male, 5 ppm inhalation): 6.4 ± 0.69%
TI (%), mean of medians from 2 slides ([1]; male, 5 ppm inhalation): 6.1% and 7.5% and 6.6% and 5.5% and 6.5%
Hedgehogs/100 cells (mean ± SD) ([1]; male, 10 ppm inhalation): 4 ± 4 /100 cells
TI (%) (mean ± SD) ([1]; male, 10 ppm inhalation): 7.9 ± 3.21%
TI (%), mean of medians from 2 slides ([1]; male, 10 ppm inhalation): 12.0% and 3.6% and 6.0% and 7.3% and 7.2% and 11.4%
Hedgehogs/100 cells (mean ± SD) ([1]; male, 20 ppm inhalation): 1 ± 1 /100 cells
TI (%) (mean ± SD) ([1]; male, 20 ppm inhalation): 3.9 ± 0.72%
TI (%), mean of medians from 2 slides ([1]; male, 20 ppm inhalation): 3.8% and 3.5% and 5.2% and 3.6% and 3.3% and 4.2%
BALB/3T3 cell transformation test result [2]: negative
Binding of NVP or its metabolites to (liver) DNA [3]: no binding
Micronucleus test result [4]: negative
Concentration from which liver cell proliferation is significantly increased ([5]; inhalation for 7 days): ≥ 1 ppm
Concentration giving a significant increase of liver cell proliferation (zones 3 and 2) ([5]; inhalation for 28 days): 0.5 ppm
Liver microsomal BROD activity ([6]; 5 ppm): 54.5 ± 11.3 pmol/min/mg protein
Liver microsomal BROD activity ([6]; 10 ppm): 61.7 ± 16 pmol/min/mg protein
Liver microsomal BROD activity ([6]; 20 ppm): 42.1 ± 16.5 pmol/min/mg protein
Change of total non-protein-bound sulfhydryls ([7]; Sprague–Dawley rats, inhalation 3 months, 10 ppm): increase
Concentration at which erythrocytes, hematocrit and hemoglobin were reduced ([7]; rats, inhalation): 15 ppm
Concentration with foci of altered hepatocytes ([7]; rats, inhalation): 5 ppm
LOAEC, liver (increased gamma-glutamyl transpeptidase and glutathione) ([7]; rats, inhalation): 5 ppm
LOAEC, nasal mucosa (inflammation, olfactory epithelium atrophy, basal cell hyperplasia) ([7]; rats, inhalation): 5 ppm
Dose with necrosis of single centrilobular liver cells ([7]; subchronic studies in rats and mice): 45 ppm
